SMILES strings stand for the structures.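 The compound was tested at five concentrations on cells cultured in 96-well plates, with a 48-hour exposure period. GI50 = concentration required for 50% inhibition of growth.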 Activity calls are given as the source filed them. No stated cut-off is given here; in the data, active = GI50 up to about 1.1 µM and inactive = higher. Bounds are passed on as bounds.

Some test systems named below: A549; CAKI-1; CCRF-CEM; COLO 205; EKVX; HOP-62; LOX IMVI; MCF7; NCI-H226; NCI-H23; OVCAR-4; SF-295; SW-620; UACC-62; UO-31; 786-0; M14; TK-10; PC-3.
What all share (assay): DTP human tumour cell line panel, 48 h

As to `CCCC(=O)OCC1OC(n2ccc(N)nc2=O)C(OC(=O)CCC)C1OC(=O)CCC` (stereo not given), the GI50 in the experiment on A549 is 8.05 µM (inactive); with CAKI-1, 5.25 µM (inactive); with CCRF-CEM, 0.203 µM (active); in the experiment with COLO 205, > 100 µM (inactive); in the experiment on EKVX, 2.25 µM (inactive); in the experiment on HOP-62, 0.0957 µM (active). Also, the GI50 is 3.03 µM (inactive) in the experiment with LOX IMVI; 8.09 µM (inactive) in the experiment with MCF7; 88.5 µM (inactive) in the experiment on NCI-H226; 5.01 µM (inactive) with NCI-H23; > 100 µM (inactive) in the experiment on OVCAR-4; > 73.5 µM (inactive) in the experiment on SF-295. In addition, the GI50 in the experiment with SW-620 is > 100 µM (inactive); in the experiment on UACC-62 it was 26.4 µM (inactive); in the experiment on UO-31, 21.6 µM (inactive).
As to `O=c1cc2ccccc2nn1Cc1ccccc1Cl`, the GI50 in the experiment with 786-0, in the experiment on A549, in the experiment on CAKI-1, in the experiment with CCRF-CEM, in the experiment with COLO 205 and with EKVX was > 100 µM (inactive) each time. Besides, the GI50 is > 100 µM (inactive) with HOP-62; > 100 µM (inactive) in the experiment with LOX IMVI; > 100 µM (inactive) in the experiment with M14; > 100 µM (inactive) with NCI-H226; 88.9 µM (inactive) in the experiment on NCI-H23; > 100 µM (inactive) with OVCAR-4. Moreover, the GI50 with SF-295 was > 100 µM (inactive); with SW-620, > 100 µM (inactive); in the experiment with TK-10 it was > 100 µM (inactive); in the experiment on UACC-62, 89.7 µM (inactive); with UO-31, 29.5 µM (inactive).
Turning to `C/C(=N\NC(=S)Nc1ccc([N+](=O)[O-])cc1S(=O)(=O)O)c1ccccn1`, the GI50 is 59.8 µM (inactive) in the experiment on 786-0; 37.7 µM (inactive) in the experiment with A549; 52.8 µM (inactive) in the experiment on CAKI-1; 39.9 µM (inactive) with CCRF-CEM; 36.5 µM (inactive) with COLO 205; 37.9 µM (inactive) in the experiment on EKVX. For the same molecule, the GI50 in the experiment with HOP-62 was 76.9 µM (inactive); in the experiment on LOX IMVI, 53.2 µM (inactive); in the experiment on M14 it was 64 µM (inactive); in the experiment on NCI-H226, 37.4 µM (inactive); with NCI-H23, 69.3 µM (inactive); with OVCAR-4, 36.8 µM (inactive). Besides, the GI50 was > 100 µM (inactive) in the experiment on SF-295; 26.5 µM (inactive) in the experiment on SW-620; 37.4 µM (inactive) in the experiment with TK-10; 73.8 µM (inactive) with UACC-62; 45.6 µM (inactive) with UO-31.
Take `CC(C)Cc1ccc(C(C)C(=O)N2CCN(/C=C/c3ccccc3)CC2)cc1` (stereo not given): the GI50 is 11.5 µM (inactive) in the experiment on A549; 13 µM (inactive) with CCRF-CEM; 15.4 µM (inactive) with COLO 205; 15.8 µM (inactive) in the experiment on EKVX; 15.8 µM (inactive) in the experiment with HOP-62; 18.7 µM (inactive) with LOX IMVI. Besides, the GI50 in the experiment on MCF7 is 16 µM (inactive); in the experiment on NCI-H226 it was 12.6 µM (inactive); in the experiment with NCI-H23, 13.2 µM (inactive); with OVCAR-4, 11.9 µM (inactive); with SF-295, 15.9 µM (inactive); in the experiment on SW-620, 15.6 µM (inactive). Besides, the GI50 was 13.4 µM (inactive) with UACC-62 and 10.5 µM (inactive) with UO-31.
Regarding `COC(=O)c1ccc(/N=N/N(C)COc2ccc(Br)cc2)cc1`, the GI50 is 66.7 µM (inactive) with A549; > 57.7 µM (inactive) in the experiment with CAKI-1; 34 µM (inactive) in the experiment with CCRF-CEM; > 100 µM (inactive) in the experiment with COLO 205; > 75.2 µM (inactive) with EKVX; > 100 µM (inactive) with HOP-62. Besides, the GI50 with LOX IMVI is 49.2 µM (inactive); in the experiment on MCF7, > 58.3 µM (inactive); in the experiment with NCI-H226 it was > 100 µM (inactive); in the experiment on NCI-H23, > 68.5 µM (inactive); in the experiment with OVCAR-4 it was 54.2 µM (inactive); with SF-295, > 60.8 µM (inactive). For the same molecule, the GI50 with SW-620 is > 90.2 µM (inactive); with UACC-62 it was 60 µM (inactive); with UO-31, > 100 µM (inactive).
`Nc1ccc(S(=O)(=O)C23CC4CC(CC(C4)C2)C3)cc1`: the GI50 is > 100 µM (inactive) with 786-0; > 100 µM (inactive) with A549; > 100 µM (inactive) in the experiment with CAKI-1; 49.8 µM (inactive) in the experiment on CCRF-CEM; 74.1 µM (inactive) in the experiment on COLO 205; > 100 µM (inactive) with EKVX. The GI50 in the experiment with HOP-62 is > 100 µM (inactive); in the experiment with LOX IMVI, 70.8 µM (inactive); in the experiment on M14, > 100 µM (inactive); in the experiment on MCF7, > 100 µM (inactive); with NCI-H226 it was > 100 µM (inactive); in the experiment with NCI-H23, > 100 µM (inactive). Further, the GI50 with PC-3 was 51.5 µM (inactive); in the experiment with SF-295 it was > 100 µM (inactive); with SW-620, > 100 µM (inactive); in the experiment on TK-10, > 100 µM (inactive); in the experiment on UACC-62 it was > 100 µM (inactive); in the experiment on UO-31 it was > 100 µM (inactive).
`O=C(Cc1ccccc1)NN1C(=O)C(Cl)C1c1ccc(Cl)cc1` (stereo not given): the GI50 in the experiment on 786-0, in the experiment on A549, in the experiment with CAKI-1, in the experiment on CCRF-CEM, in the experiment on COLO 205 and with EKVX was > 100 µM (inactive) throughout. Besides, the GI50 with HOP-62, in the experiment with LOX IMVI, with M14, in the experiment with NCI-H226, with NCI-H23 and in the experiment with OVCAR-4 was > 100 µM (inactive) throughout. For the same molecule, the GI50 in the experiment on SF-295 is > 100 µM (inactive); in the experiment with SW-620, > 100 µM (inactive); in the experiment with TK-10, > 100 µM (inactive); in the experiment with UACC-62, > 100 µM (inactive); in the experiment on UO-31, 62.4 µM (inactive).
On to `CC(C)OC(=O)c1cc(NC(=O)C(C)(C)C)c(F)cc1Cl`, for which the GI50 with 786-0, with A549, with CAKI-1, with CCRF-CEM, in the experiment on COLO 205 and in the experiment on EKVX was > 100 µM (inactive) throughout. Besides, the GI50 with HOP-62, with LOX IMVI, in the experiment on M14, with NCI-H226, with NCI-H23 and in the experiment on OVCAR-4 was > 100 µM (inactive) in each case. Besides, the GI50 in the experiment with SF-295, in the experiment on SW-620, in the experiment with TK-10, in the experiment with UACC-62 and in the experiment with UO-31 was > 100 µM (inactive) throughout.
Take `S=C(N/N=C/c1ccccc1)NC12CC3CC(CC(C3)C1)C2`: the GI50 was 56.1 µM (inactive) in the experiment with 786-0; 27.8 µM (inactive) in the experiment on A549; 49.3 µM (inactive) with CAKI-1; 19.6 µM (inactive) in the experiment with CCRF-CEM; 27 µM (inactive) in the experiment on COLO 205; 71.4 µM (inactive) in the experiment with EKVX. In addition, the GI50 in the experiment on HOP-62 is > 100 µM (inactive); in the experiment with LOX IMVI, 22.8 µM (inactive); with M14 it was 46.6 µM (inactive); in the experiment with NCI-H226, 97.7 µM (inactive); in the experiment with NCI-H23 it was 55.8 µM (inactive); in the experiment on OVCAR-4 it was 42.2 µM (inactive). Moreover, the GI50 with SF-295 is 41 µM (inactive); in the experiment on SW-620 it was 30.5 µM (inactive); in the experiment on TK-10, > 100 µM (inactive); with UACC-62, 27.5 µM (inactive); in the experiment with UO-31, > 100 µM (inactive).
Turning to `CC1=C(C(=O)NCCc2ccccc2)CC(C(=O)NCCc2ccccc2)=C(C)N1`, the GI50 with 786-0 is 87.5 µM (inactive); in the experiment with A549 it was > 100 µM (inactive); in the experiment on CAKI-1, > 100 µM (inactive); with CCRF-CEM, 27.8 µM (inactive); in the experiment on COLO 205, > 100 µM (inactive); in the experiment on EKVX it was 65.3 µM (inactive). Also, the GI50 is 75.3 µM (inactive) with HOP-62; > 100 µM (inactive) in the experiment on LOX IMVI; > 100 µM (inactive) in the experiment with M14; > 100 µM (inactive) in the experiment on MCF7; > 100 µM (inactive) with NCI-H226; > 100 µM (inactive) in the experiment with NCI-H23. Besides, the GI50 was > 100 µM (inactive) with OVCAR-4; 37.2 µM (inactive) in the experiment on PC-3; > 100 µM (inactive) with SF-295; > 100 µM (inactive) with SW-620; > 100 µM (inactive) with TK-10; > 100 µM (inactive) with UACC-62. Further, in the experiment with UO-31, the GI50 was 65.8 µM (inactive).
For `CC1S(=O)(=O)OCCOS1(=O)=O`, the GI50 in the experiment with 786-0 is 46.2 µM (inactive); in the experiment on A549, > 95.5 µM (inactive); in the experiment with CAKI-1, 53.3 µM (inactive); in the experiment on CCRF-CEM it was 50 µM (inactive); with COLO 205, > 100 µM (inactive); in the experiment with EKVX it was > 100 µM (inactive). The GI50 in the experiment with HOP-62 was > 100 µM (inactive); in the experiment with LOX IMVI, 52.2 µM (inactive); with M14, > 100 µM (inactive); with NCI-H226, > 100 µM (inactive); in the experiment with NCI-H23, > 76.9 µM (inactive); in the experiment on OVCAR-4, > 100 µM (inactive). Besides, the GI50 in the experiment on SF-295 is 50.4 µM (inactive); in the experiment on SW-620 it was > 100 µM (inactive); in the experiment on TK-10, > 100 µM (inactive); with UACC-62, 22.6 µM (inactive); in the experiment on UO-31, > 100 µM (inactive).
As for `CN1C/C(=C\c2ccc(C(=O)O)cc2)C(=O)/C(=C/c2ccc(C(=O)O)cc2)C1`, the GI50 in the experiment on 786-0, with A549, in the experiment with CAKI-1, in the experiment on CCRF-CEM, in the experiment with COLO 205 and in the experiment with EKVX was > 100 µM (inactive) throughout. For the same molecule, the GI50 with HOP-62, in the experiment with LOX IMVI, in the experiment with M14, with NCI-H226, with NCI-H23 and in the experiment with OVCAR-4 was > 100 µM (inactive) in each case. Also, the GI50 in the experiment with SF-295, with SW-620, in the experiment with TK-10, in the experiment on UACC-62 and with UO-31 was > 100 µM (inactive) in each case.

(Values after ChEMBL document CHEMBL1201862, “PubChem BioAssay data set” (2004).)
